Reference: patent US20110245197A1, “HYPERSULFATED GLUCOPYRANOSIDES” (OPKO Health, Inc., priority 2010, published 2011)

Test system: allergic sheep (dual bronchoconstrictor responders to Ascaris suum antigen)
Test: Antigen-induced change in specific pulmonary airflow resistance (SRL): early (EAR) and late (LAR) airway response in allergic sheep
Format: in vivo
Experimental: Pulmonary airflow resistance was measured by taking allergic sheep previously verified as dual bronchoconstrictor responders to Ascaris suum antigen. The sheep were intubated with a cuffed nasotracheal tube and pulmonary airflow resistance (RL) was measured by the esophageal balloon catheter technique, while thoracic gas volume was measured by body plethysmography. Data were expressed as specific RL (SRL, defined as RL times thoracic gas volume (Vtg)). Airway responsiveness was determined by first securing cumulative dose response curves to inhaled carbachol (a constrictor agonist) by measuring SRL before and after inhalation of buffered saline and after each administration of 10 breaths of increasing concentrations of carbachol (0.25, 0.5, 1.0, 2.0 and 4.0% wt/vol solution). Airway responsiveness was measured by determining the cumulative provocation dose (PD400) of carbachol (in breath units) that increased SRL to 400% above baseline. One breath unit was defined as one breath of 1% carbachol solution.
To illustrate the effectiveness of the formulations according to the invention to treat and alleviate allergen related diseases and conditions, including but not limited to the specific diseases and conditions recited herein, sheep were assessed in multiple experiments which compared various formulations containing no added polymer or additive to animals which were provided formulations comprising a compound of formula I (as compound 1a) along with an optional additive selected from a polymer. To measure pulmonary airflow resistance, the sheep were intubated with a cuffed nasotracheal tube and pulmonary airflow resistance (RL) was measured by the esophageal balloon catheter technique, while thoracic gas volume was measured by body plethysmography. […] Data were expressed as specific RL (SRL defined as RL× thoracic gas volume (Vg).
For airway studies, each animal's baseline airway responsiveness (PD400)) was determined and then, on different experimental days, the test sheep underwent airway challenge with Ascaris suum antigen. […]

[1] = aerosol 0.5 mgs/kg (approximately 20 mgs), thirty minutes before antigen challenge, n=5 (FIG. 11)

Substance: aluminum salt of octasulfated sucrose
- LAR % protection [1]: 0%
- effect on EAR [1]: no significant effect
- effectiveness (general statement) (general statement in the description, supported by FIG. 11): not effective
